The record followed here is US5523403A, “Tropone-substituted phenyloxazolidinone antibacterial agents” (The Upjohn Company, priority 1995, dated 1996).

Experiment [1] has as its system Staphylococcus aureus UC ® 9213. As to the kind of experiment: in vitro antibacterial activity, Minimum Inhibitory Concentration, Staphylococcus aureus. The conditions noted are these: for MIC: Staphylococcus aureus, UC9213, read-out: Minimum Inhibitory Concentration; for Minimum Inhibitory Concentration: in vitro, Staphylococcus aureus UC ® 9213.
Experiment [2] deals with Streptococcus pyogenes UC ® 152. As to the kind of experiment: in vitro antibacterial activity, Minimum Inhibitory Concentration, Streptococcus pyogenes. The conditions noted are these: for MIC: Streptococcus pyogenes, UC152, read-out: Minimum Inhibitory Concentration; for Minimum Inhibitory Concentration: in vitro, Streptococcus pyogenes UC ® 152.

Values after ≈ are worked out from the molar mass of the structure shown.

Take `CC(=O)NC[C@H]1CN(c2ccc(-c3ccc(N4CCOCC4)c(=O)cc3)cc2)C(=O)O1` [Compound 25, (S)-N-[[3-[4[4-(4-morpholino)-5-oxo-1,3,6-cycloheptatrien-1-yl]phenyl]-2-oxo-5-oxazolidinyl]methyl]-acetamide]: the results for the MIC in experiment [1] and in experiment [2] were 2 µg/mL (≈ 4.72 µM) and 0.5 µg/mL (≈ 1.18 µM), respectively.

On to `C=CCNc1cccc(-c2ccc(N3CC(CNC(C)=O)OC3=O)cc2)cc1=O` (racemic) [Compound 26, (±)-N[[3-[4-[4-(2-propenylamino)-3-oxo1,4,6-cycloheptatrien-1-yl]phenyl-2oxo-5-oxazolidinyl]methyl]-acetamide], for which the MIC is 2 µg/mL (≈ 5.08 µM) in experiment [1] and 1 µg/mL (≈ 2.54 µM) in experiment [2].

As to `C#CCNc1ccc(-c2ccc(N3C[C@H](CNC(C)=O)OC3=O)cc2F)ccc1=O` [Compound 34], the “Minimum Inhibitory Concentration” value in experiment [1] turned out to be 1 µg/mL; in experiment [2], 0.25 µg/mL.

As to `CC(=O)NCC1CN(c2ccc(-c3ccc(N4CC=CC4)c(=O)cc3)cc2)C(=O)O1` (racemic) [Compound 32, (±)-N-[[3-[4-[4-(2,5dihydro-1H--pyrrol-1-yl)-5-oxo-1,3,6-cycloheptatrien-1-yl]phenyl]-2-oxo-5-oxazolidinyl]methyl]-acetamide], the MIC in experiment [1] came to 32 µg/mL (≈ 78.9 µM); in experiment [2], 4 µg/mL (≈ 9.87 µM).

Turning to `CC(=O)NCC1CN(c2ccc(-c3ccc(NC4CCCC4)c(=O)cc3)cc2)C(=O)O1` (racemic) [Compound 11, (±)-N-[[3-[4-(4-cyclopentylamino-5-oxo-1,3,6-cycloheptatrien-1-yl)phenyl]-2-oxo-5-oxazolidinyl]methyl]-acetamide], the MIC amounted to 4 µg/mL (≈ 9.49 µM) in experiment [1] and 1 µg/mL (≈ 2.37 µM) in experiment [2].

`CC(=O)NCC1CN(c2ccc(-c3ccc(N4CCN(C=O)CC4)c(=O)cc3)cc2)C(=O)O1` (racemic) [Compound 7, (±)-N-[[3-[4-[4-(4-formyl-1-piperazinyl)-5-oxo-1,3,6-cycloheptatrien-1-yl]phenyl]-2-oxo-5-oxazolidinyl]methyl]-acetamide]: the MIC in experiment [1] came out at 4 µg/mL (≈ 8.88 µM); in experiment [2], 0.5 µg/mL (≈ 1.11 µM).

On to `COc1cccc(-c2ccc(N3CC(CNC(C)=O)OC3=O)cc2)cc1=O` (racemic) [Compound 20, (±)-N-[[3-[4-[4-methoxy-3-oxo-1,4,6-cycloheptatrien-1-yl)phenyl]-2-oxo-5-oxazolidinyl]methyl]-acetamide], for which the MIC in experiment [1] amounted to 4 µg/mL (≈ 10.9 µM); in experiment [2], 0.5 µg/mL (≈ 1.36 µM).

In the case of `CC(=O)NCC1CN(c2ccc(-c3ccc(NCCO)c(=O)cc3)cc2)C(=O)O1` (racemic) [Compound 4, (±)-N-[[3-[4-[4-[(2-hydroxyethyl)amino]-5-oxo1,3,6-cycloheptatrien-1-yl]phenyl]-2oxo-5-oxazolidinyl]methyl-acetamide], the MIC in experiment [1] worked out at 4 µg/mL (≈ 10.1 µM); in experiment [2], 0.5 µg/mL (≈ 1.26 µM).

Consider `COc1ccc(-c2ccc(N3C[C@H](CNC(C)=O)OC3=O)cc2)ccc1=O` [Compound 28, (S)-N-[[3-[4-methoxy-5-oxo-1,3,6-cycloheptatrien-yl)phenyl-2-oxo-5-oxazolidinyl)methyl]-acetamide], for which the MIC in experiment [1] came to 1 µg/mL (≈ 2.71 µM).

Take `COC(=O)CNc1ccc(-c2ccc(N3CC(CNC(C)=O)OC3=O)cc2)ccc1=O` (racemic) [Compound 30, (±)-N-[[3-[4-[-[[(methoxycarbonyl)methyl]amino]-5-oxo-1,3,6cycloheptatrien-1-yl]phenyl]-2-oxo-5-oxazolidinyl]methyl]-acetamide]: the figures for the “Minimum Inhibitory Concentration” value in experiment [1] and in experiment [2] were 4 µg/mL and 1 µg/mL, respectively.

Regarding `C=CCOc1ccc(-c2ccc(N3CC(CNC(C)=O)OC3=O)cc2)ccc1=O` (racemic) [Compound 33, (±)-N-[[3-[4-[4-(2-propenyloxy)5-oxo-1,3,6-cycloheptatrien-1-yl]phenyl]-2-oxo-5-oxazolidinyl)methyl]-acetamide], the MIC was found to be 4 µg/mL (≈ 10.1 µM) in experiment [1] and 1 µg/mL (≈ 2.54 µM) in experiment [2].

Turning to `CCCCNc1ccc(-c2ccc(N3CC(CNC(C)=O)OC3=O)cc2)ccc1=O` (racemic) [Compound 13, (±)-N-[[3-[4-(4-butylamino-5-oxo-1,3,6-cycloheptatrien-1-yl)phenyl]-2-oxo-5-oxazolidinyl]methyl]-acetamide], the values for the MIC in experiment [1] and in experiment [2] were 2 µg/mL (≈ 4.88 µM) and 0.5 µg/mL (≈ 1.22 µM), respectively.

Regarding `CCN(CC)c1ccc(-c2ccc(N3CC(CNC(C)=O)OC3=O)cc2)ccc1=O` (racemic) [Compound 2, (±)-N[[3-[4-(4-diethylamino-5-oxo-1,3,6-cycloheptatrien-1-yl)phenyl]-2-oxo-5-oxazolidinyl]methyl]-acetamide], the MIC in experiment [1] was 4 µg/mL (≈ 9.77 µM); in experiment [2] it was 1 µg/mL (≈ 2.44 µM).

Consider `CC(=O)NCC1CN(c2ccc(-c3ccc(NC4CC4)c(=O)cc3)cc2)C(=O)O1` (racemic) [Compound 6, (±)-N-[[3-[4-(4-cyclopropylamino-5-oxo-1,3,6-cycloheptatrien-1-yl)phenyl]-2-oxo-5-oxazolidinyl]methyl]-acetamide], for which the MIC in experiment [1] was found to be 2 µg/mL (≈ 5.08 µM); in experiment [2], 0.5 µg/mL (≈ 1.27 µM).

In the case of `CC(=O)NCC1CN(c2ccc(-c3ccc(N4CCOCC4)c(=O)cc3)cc2)C(=O)O1` (racemic) [Compound 5, (±)-N-[[3-[4-[4-(4-morpholino)-5-oxo1,3,6-cycloheptatrien-1-yl]phenyl]2oxo5-oxazolidinyl]methyl]-acetamide], the MIC in experiment [1] came to 2 µg/mL (≈ 4.72 µM); in experiment [2], 0.5 µg/mL (≈ 1.18 µM).

In the case of `C=CCNc1ccc(-c2ccc(N3CC(CNC(C)=O)OC3=O)cc2)ccc1=O` (racemic) [Compound 8, (±)-N-[[3-[4-[4-(2-propenylamino)5-oxo-1,3,6-cycloheptatrien-1-yl]phenyl]-2-oxo-5-oxazolidinyl]methyl]-acetamide], the figures for the MIC in experiment [1] and in experiment [2] were 2 µg/mL (≈ 5.08 µM) and 0.5 µg/mL (≈ 1.27 µM), respectively.

Turning to `COc1cc(-c2ccc(N3CC(CNC(C)=O)OC3=O)cc2)cccc1=O` (racemic) [Compound 21, (±)-N-[[3-[4-(6-methoxy-5-oxo-1,3,6-cycloheptatrien-1-yl]phenyl]-2-oxo5-oxazolidinyl]methyl]-acetamide], the MIC in experiment [1] was 64 µg/mL (≈ 174 µM); in experiment [2], 8 µg/mL (≈ 21.7 µM).

In the case of `CC(=O)NCC1CN(c2ccc(-c3ccc(N4C[C@@H](C)N[C@@H](C)C4)c(=O)cc3)cc2)C(=O)O1` (mixture of isomers) [Compound 14, (±)-N-[[3-[4-[4-(cis-3,5-dimethyl-1-piperazinyl)-5-oxo-1,3,6-cycloheptatrien-1-yl]phenyl]-2-oxo5-oxazolidinyl]methyl]-acetamide], the values for the MIC in experiment [1] and in experiment [2] were 8 µg/mL (≈ 17.8 µM) and 0.5 µg/mL (≈ 1.11 µM), respectively.

`CC(=O)NCC1CN(c2ccc(-c3ccc(N4CCC(O)C4)c(=O)cc3)cc2)C(=O)O1` (racemic) [Compound 18, (±)-N-[[3-[4-[4-(3-hydroxy-1-pyrrolidinyl)-5-oxo-1,3,6-cycloheptatrien-1-yl]phenyl]-2-oxo-5oxazolidinyl]methyl]-acetamide]: the values for the MIC in experiment [1] and in experiment [2] were 4 µg/mL (≈ 9.45 µM) and 1 µg/mL (≈ 2.36 µM), respectively.

Consider `CNc1ccc(-c2ccc(N3CC(CNC(C)=O)OC3=O)cc2)ccc1=O` (racemic) [Compound 31, (±)-N-[[3-[4-(4-methylamino--5-oxo1,3,6-cyclopheptatrien1-yl)phenyl]2-oxo-5-oxazolidinyl]methyl]-acetamide], for which the MIC in experiment [1] is 2 µg/mL (≈ 5.44 µM); in experiment [2], 0.25 µg/mL (≈ 0.68 µM).

Regarding `CCOc1ccc(-c2ccc(N3CC(CNC(C)=O)OC3=O)cc2)ccc1=O` (racemic) [Compound 22, (±)-N-[[3-[4-(4-ethoxy-5-oxo-1,3,6-cycloheptatrien-1-yl]phenyl]-2-oxo5-oxazolidinyl]methyl]-acetamide], the results for the MIC in experiment [1] and in experiment [2] were 4 µg/mL (≈ 10.5 µM) and 0.5 µg/mL (≈ 1.31 µM), respectively.

For the molecule `CC(=O)NC[C@H]1CN(c2ccc(-c3ccc(N4CCOCC4)c(=O)cc3)c(F)c2)C(=O)O1` [Compound 36, (S)-N-[[3-[3-fluoro4[(4-morpholino)-5-oxo-1,3,6cycloheptatrien-1-yl]phenyl]-2-oxo-5oxazolidinyl]methyl]-acetamide], the figures for the MIC in experiment [1] and in experiment [2] were 2 µg/mL (≈ 4.53 µM) and 0.5 µg/mL (≈ 1.13 µM), respectively.

Consider `CC(=O)NCC1CN(c2ccc(-c3ccc(NCc4ccccc4)c(=O)cc3)cc2)C(=O)O1` (racemic) [Compound 3, (±)-Acetamide, N-[[2-oxo-3-[4-[5-oxo-4-[(phenylmethyl)amino]-1,3,6-cycloheptatrien-1-yl]phenyl]-5-oxazolidinyl]methyl]], for which the MIC in experiment [1] was above 64 µg/mL; in experiment [2], 4 µg/mL (≈ 9.02 µM).

Turning to `COCCOc1ccc(-c2ccc(N3CC(CNC(C)=O)OC3=O)cc2)ccc1=O` (racemic) [Compound 35, (±)-N-[[3-[4-[4-(2-methoxyethoxy)-5-oxo-1,3,6cycloheptatrien1-yl]phenyl)-2-oxo-5-oxazolidinyl]methyl]-acetamide], the MIC in experiment [1] came to 4 µg/mL (≈ 9.7 µM); in experiment [2], 1 µg/mL (≈ 2.42 µM).

In the case of `CC(=O)NCC1CN(c2ccc(-c3cccc(N4CCOCC4)c(=O)c3)cc2)C(=O)O1` (racemic) [Compound 27, (±)-N-[]3-[4-4-(4-morpholinyl)-3-oxo-1,4,6-cycloheptatrien-1-yl]phenyl]-2-oxo-5-oxazolidinyl]methyl]-acetamide], the MIC in experiment [1] stood at 4 µg/mL (≈ 9.45 µM); in experiment [2] it was 1 µg/mL (≈ 2.36 µM).

As for `COc1ccc(-c2ccc(N3C[C@H](CNC(C)=O)OC3=O)cc2F)ccc1=O` [Compound 19], the figures for the MIC in experiment [1] and in experiment [2] were 1 µg/mL (≈ 2.59 µM) and 0.25 µg/mL (≈ 0.647 µM), respectively.

For the molecule `CC(=O)NCC1CN(c2ccc(-c3ccc(N4CCCCC4)c(=O)cc3)cc2)C(=O)O1` (racemic) [Compound 15, (±)-N-[[3-[4-[4-(1-piperidinyl)-5-oxo-1,3,6-cycloheptatrien-1-yl]phenyl]-2-oxo-5-oxazolidinyl]methyl]-acetamide], the values for the MIC in experiment [1] and in experiment [2] were 2 µg/mL (≈ 4.74 µM) and 1 µg/mL (≈ 2.37 µM), respectively.

On to `COc1ccc(-c2ccc(N3CC(CNC(C)=O)OC3=O)cc2)ccc1=O` (racemic) [Compound 1, (±)-N[[3-[4-(4-methoxy-5-oxo-,1,3,6-cycloheptatrien-yl)phenyl]-2-oxazolidinyl]methyl-acetamide], for which the MIC worked out at 2 µg/mL (≈ 5.43 µM) in experiment [1] and 0.25 µg/mL (≈ 0.679 µM) in experiment [2].
